# Assay results reported in patent US20190085334A1, “TREATMENT OF NEUROINFLAMMATION IN NEUROLOGICAL DISORDERS” (Board of Trustees of Michigan State University, priority 2017, published 2019).
# Assays:
# [1] = tested on: CXCL10 production from monocytes; test: CXCL10 production from interferon-stimulated monocytes, intracellular staining on flow cytometry; type: cell-based, human
# Experimental: (§1) Cells are plated at 3×10^5 cells/well for PBMC and isolated monocyte experiments, and 1×10^5 cell/well for isolated neutrophil experiments, in 96-well plates. Cells are cultured in complete RPMI (RPMI 1640, 10% FBS, 1×PSF). For cross-linking experiments 10 μg/mL anti-SLAMF7 mAb or SLAMF7-Fc is added to a sterile, high-binding 96-well cell culture plate O/N at 4° C. For all in vitro flow cytometry experiments, cells are cultured in the presence of stimuli for 17-18 h. In the monocyte maturation assay as shown in FIG. 18E the cells are stimulated with only 25 IU/mL IFNα for exactly 24 h. Small molecule inhibitors are added 45-60 min before IFNα for all relevant experiments. For experiments involving intracellular staining, BD GolgiPlug is added for the final 5 h. NK92 cells are purchased from ATCC and cultured as indicated by manufacturer.
# (§2) Cells are prepared and stained as previously described. Intracellular staining is performed using the BD fixation/permeabilization kit (BD Biosciences) per manufacturer's instructions. Transcription factor staining is performed with the Transcription Factor Buffer Set (BD Pharmingen) per manufacturer's instructions. Samples are analyzed on either a BD LSR II or BD FACSCanto. LIVE/DEAD staining with Aqua fixable stain (ThermoFisher) is included during initial experiments and cell viability is verified to be greater than 90%.
# [2] = tested on: SLAMF7 expression on monocytes; test: SLAMF7 expression on PBMCs and monocytes by flow cytometry; type: cell-based, human
# Experimental: as §1, §2
# isolated monocytes = test: qRT-PCR of chemokine and ISG mRNA in isolated monocytes; type: cell-based, human; conditions: IFNα and SLAMF7 cross-linking; SHP1/2 inhibitor 10 μM
# Experimental: Isolated monocytes are plated in 96-well plates at 3×10^5 cells/well and stimulated as indicated for 4 h. Cells are harvested and placed into Trizol (ThermoFisher) and RNA is isolated per manufacturer's instructions. RNA is reverse transcribed with SuperStrand First Strand Synthesis Kit III (Invitrogen) per manufacturer's instructions and analyzed on a QuantStudio7 system (ThermoFisher). GAPDH is used as a housekeeping gene and the ΔΔCt method is used for analysis.
# CXCL10 = biological target: T1, CXCL10 (Homo sapiens, UniProt P02778); conditions: monoclonal antibodies to reduce CXCL10; cited from earlier work
# T1 sequence (P02778 22-98): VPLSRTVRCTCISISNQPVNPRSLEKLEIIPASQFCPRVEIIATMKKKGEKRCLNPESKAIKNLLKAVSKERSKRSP
# [3] = tested on: SLAMF7 expression on neutrophils; test: SLAMF7 expression on neutrophils by flow cytometry; type: cell-based, human; conditions: presence and absence of IFNα stimulation
# Experimental: as §1
# Cells are prepared and stained as previously described. Intracellular staining is performed using the BD fixation/permeabilization kit (BD Biosciences) per manufacturer's instructions. […] Samples are analyzed on either a BD LSR II or BD FACSCanto. […]
# (§3) CD14^+ monocytes are isolated from PBMCs via positive selection using CD14 Microbeads (Miltenyi Biotec) per manufacturer's instructions. Purity is consistently greater than 90% as assessed by flow cytometry. […] Purity is consistently greater than 98% as assessed by flow cytometry.
# isolated neutrophils = test: Cytokine/chemokine release from isolated neutrophils, BioPlex assay; type: cell-based, human
# Experimental: as §1
# For analysis of cell culture, supernatant and plasma samples 80 μL of media or plasma is used, undiluted, and the assay is run per manufacturer's instructions (Bio-Rad, Hercules, Calif.) via Luminex 100 technology. […]
# as §3
# [4] = SLAMF7-stimulated cells, IFNα, 100 nM
compound,measurement,setting,value
CC(C)CCC[C@@H](C)[C@H]1CC[C@H]2[C@@H]3CCC4C[C@H](N)CC[C@]4(C)[C@H]3CC[C@]12C (some centres unmarked) [3AC],recovery of CXCL10 expression,"[1]; monocytes stimulated with IFNα and SLAMF7 cross-linking, pre-treatment 5 μM",does not result in recovery of CXCL10 expression
CC(C)C[C@H](NC(=O)[C@H](Cc1ccccc1)NC(=O)c1cnccn1)B(O)O [Bortezomib],SLAMF7 expression on monocytes,"[2]; with IFNα, 100 nM",acts synergistically with IFNα to upregulate SLAMF7 expression
same,CXCL10 production,[1]; [4],further decreases CXCL10 production
same,recovery of CXCL10 expression,[1]; [4],does not result in recovery of CXCL10 expression
CC(C)(C)C(=O)Nc1ccc2c(c1)C(=O)C(=O)c1ccccc1-2 [CAS 345630-40-2],rescue of CXCL10 production,"[1]; IFNα and SLAMF7 cross-linking, pre-treatment 1 μM",fails to rescue CXCL10 production
O=C(/C=C/c1ccc(CN(CCO)CCc2c[nH]c3ccccc23)cc1)NO [Dacinostat],IFNα-mediated SLAMF7 up-regulation,"[2]; classical monocytes, IFNα plus HDACi",prevents IFNα-mediated SLAMF7 up-regulation
O=S(=O)(O)c1ccc2cc(N=Nc3cc(S(=O)(=O)O)c4cccnc4c3O)ccc2c1 [NSC87877],involvement of SHP1/2 in alpha chemokine inhibition,isolated monocytes,not involved in alpha chemokine inhibition
same,recovery of CXCL10 expression,"[1]; monocytes stimulated with IFNα and SLAMF7 cross-linking, pre-treatment 10 μM",does not result in recovery of CXCL10 expression
BMS-936557: anti-CXCL10 monoclonal antibody (Brisol-Myers Squibb),anti-inflammatory activity,CXCL10,limited anti-inflammatory activity
IFNα,SLAMF7 response of CD14+ monocytes,"[2]; CD14+ monocytes, IFNα 100 IU/mL",most robust SLAMF7 response
same,percent of SLAMF7+ PBMCs,"[2]; total PBMCs from HIV+ patients, IFNα 100 IU/mL","minor, but significant increase"
same,SLAMF7 expression on neutrophils,[3],unable to upregulate SLAMF7
same,CXCL10 release from neutrophils,"isolated neutrophils; IFNα by itself, neutrophils from HCs and HIV+ patients",can induce CXCL10 release
lipopolysaccharide [LPS],CXCL10 release from neutrophils,isolated neutrophils; LPS added to IFNα,enhanced
